Data taken from US20230051589A1, “COMPOUNDS AND COMPOSITIONS FOR TREATING CONDITIONS ASSOCIATED WITH NLRP ACTIVITY” (Novartis AG, priority 2018, published 2023).
Read-outs that look alike come from different tables or passages of the source. Blank lines part the entries; values can stand above or below the compound they belong to.

Tested on: IL-1β production in PMA-differentiated THP-1 cells
Assay: IL-1β production in PMA-differentiated THP-1 cells stimulated with gramicidin (hTHP-1 assay, 2% fetal bovine serum; Procedures 1-3)
Type: cell-based, human
Details: read-out: IC50
Procedure, shortened: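 PMA-primed THP-1 cells (20 ng/ml PMA, 16-18 h) in RPMI with 2% FBS were pre-incubated with compounds for 1 h, from 100 μM downward in 3-fold steps (0.37% DMSO final), then stimulated with 5 μM gramicidin for 2 h. IL-1β in the supernatant was quantified by HTRF.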

[1] = Homo sapiens, THP-1, hTHP-1 assay containing 2% fetal bovine serum, Table B2, given as bound
[2] = hTHP-1 assay containing 2% fetal bovine serum, Table B2, given as bound
[3] = Homo sapiens, THP-1, hTHP-1 assay containing 2% fetal bovine serum, Table B2, class symbols
[4] = hTHP-1 assay containing 2% fetal bovine serum, Table B2, class symbols

Compound: NS(=O)(=NC(=O)Nc1c2c(cc3c1CCC3)CCC2)c1ccc(C2CCCC2)nc1 (single isomer, unassigned) [Example 586, (S) or (R)-6-cyclopentyl-N′-((1,2,3,5,6,7-hexahydro-s-indacen-4-yl)carbamoyl)pyridine-3-sulfonimidamide]
- IC50 [1]: > 30 µM

Compound: CC(C)(O)c1cnc(S(N)(=O)=NC(=O)Nc2c3c(cc4c2CCC4=O)CCC3)s1 (single isomer, unassigned) [Example 588, (S) or (R)-5-(2-hydroxypropan-2-yl)-N′-((1-oxo-1,2,3,5,6,7-hexahydro-s-indacen-4-yl)carbamoyl) thiazole-2-sulfonimidamide]
- IC50 [1]: > 30 µM

Compound: CC(C)(O)c1ccc(S(N)(=O)=NC(=O)Nc2cc3c(c4c2CCC4)CCC3)cn1 (single isomer, unassigned) [Example 590, (S) or (R)-N′-((1,2,3,6,7,8-hexahydro-as-indacen-4-yl)carbamoyl)-6-(2-hydroxypropan-2-yl)pyridine-3-sulfonimidamide]
- IC50 [1]: > 30 µM

Compound: N[S@](=O)(=NC(=O)Nc1c2c(cc3c1CCC3)CCC2)c1ccc(C(F)F)nc1 (single isomer, unassigned) [Example 594, (S) or (R)-6-(difluoromethyl)-N′-((1,2,3,5,6,7-hexahydroxy-indacen-4-yl)carbamoyl) pyridine-3-sulfonimidamide]
- IC50 [2]: > 30 µM

Compound: N[S@@](=O)(=NC(=O)Nc1c2c(cc3c1CCC3)CCC2)c1ccc(C(F)F)nc1 (single isomer, unassigned) [Example 595, (R) or (S)-6-(difluoromethyl)-N′-((1,2,3,5,6,7-hexahydroxy-indacen-4-yl)carbamovl)pyridine-3-sulfonimidamide]
- IC50 [4]: 1 to 5 µM

Compound: CC(C)(O)c1ncc(S(N)(=O)=NC(=O)Nc2c3c(c(Cl)c4c2CCC4)CCC3)s1 (single isomer, unassigned) [Example 596, (S) or (R)-N′-((8-chloro-1,2,3,5,6,7-hexahydro-s-indacen-4-yl)carbamoyl)-2-(2-hydroxypropan-2-yl)thiazole-5-sulfonimidamide]
- IC50 [4]: 1 to 5 µM

Further lines, results first:

- IC50 [2]: > 30 µM
Compound: NS(=O)(=NC(=O)Nc1c2c(cc3c1CCC3)CCC2)c1ccc(C2CCCC2)nc1 (single isomer, unassigned) [Example 587, (R) or (S)-6-cyclopentyl-N′-((1,2,3,5,6,7-hexahydro-s-indacen-4-yl)carbamoyl)pyridine-3-sulfonimidamide]

- IC50 [3]: 1 to 5 µM
Compound: CC(C)(O)c1cnc(S(N)(=O)=NC(=O)Nc2c3c(cc4c2CCC4=O)CCC3)s1 (single isomer, unassigned) [Example 589, (R) or (S)-5-(2-hydroxypropan-2-yl)-N′-((1-oxo-1,2,3,5,6,7-hexahydro-s-indacen-4-yl)carbaamoyl) thiazole-2-sulfonimidamide]

- IC50 [3]: 1 to 5 µM
Compound: CC(C)(O)c1ccc(S(N)(=O)=NC(=O)Nc2cc3c(c4c2CCC4)CCC3)cn1 (single isomer, unassigned) [Example 591, (R) or (S)-N′-((1,2,3,6,7,8-hexahydro-as-indacen-4-yl)carbamoyl)-6-(2-hydro\ypropan-2-yl)pyridine-3-sulfonimidamide]

- IC50 [4]: 5 to 30 µM
Compound: CNC(C)(C)c1ccc(S(N)(=O)=NC(=O)Nc2c3c(cc4c2CCC4)CCC3)c(F)c1 (single isomer, unassigned) [Example 592, (S) or (R)-2-fluoro-N′-((1,2,3,5,6,7-hexahydro-s-indacen-4-yl)carbamoyl)-4-(2-(methylamino)propan-2-yl) benzenesulfonimidamide]

- IC50 [4]: 0.2 to 1 µM
Compound: CNC(C)(C)c1ccc(S(N)(=O)=NC(=O)Nc2c3c(cc4c2CCC4)CCC3)c(F)c1 (single isomer, unassigned) [Example 593, (R) or (S)-2-fluoro-N′-((1,2,3,5,6,7-hexahydro-s-indacen-4-yl)carbamoyl)-4-(2-(methylamino)propan-2-yl) benzenesulfonimidamide]
